The assay deals with T1, carbonic anhydrase (bovine erythrocyte, Sigma Chemical Company, mixture of isozymes) (Bos taurus, UniProt P00921).
T1 construct: purchased Sigma Chemical Company; host or cells: bovine erythrocyte
In words: Binding constants by isothermal titration calorimetry. The procedure:
The binding constants of these complexes with carbonic anhydrase (bovine erythrocyte, Sigma Chemical Company, mixture of isozymes) were determined employing isothermal titration calorimetry (25 mM HEPES buffer, pH=7.0), and the results are presented in Table 1.
The titration procedures employing isothermal titration calorimetry were carried out employing the instrument ITC-4200 (Calscorp Inc., Provo, Utah). The reference cell (volume: 1.32 mL) was filled with 25 mM HEPES buffer, pH=7.0. Carbonic anhydrase was taken in the sample cell (1.32 mL, […] protein in 25 mM HEPES buffer, pH=7.0). The copper complexes (1 mM) were dissolved in the same buffer and were added to the enzyme solution (42×5 μL injections). Heats of dilution for the complexes were separately determined by injecting the solution of the complexes in buffer (taken in the sample cell). The heats of dilution were subtracted from the titration data files, and the resultant data were processed by the software provided by the manufacturer (Bind Works 3.0).

The mark [1] stands for this setting: isothermal titration calorimetry, 25 mM HEPES buffer, pH=7.0.

T1 sequence (P00921 2-260 limits assumed): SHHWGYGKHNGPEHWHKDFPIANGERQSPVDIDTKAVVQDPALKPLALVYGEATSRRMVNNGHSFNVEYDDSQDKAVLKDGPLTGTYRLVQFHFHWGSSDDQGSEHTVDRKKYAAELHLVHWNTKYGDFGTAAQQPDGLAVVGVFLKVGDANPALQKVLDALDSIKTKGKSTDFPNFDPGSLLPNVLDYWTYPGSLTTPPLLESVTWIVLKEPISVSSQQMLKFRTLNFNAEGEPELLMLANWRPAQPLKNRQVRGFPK

What is called Kd is the concentration at which binding is half-saturated. Turning to `NS(=O)(=O)c1ccccc1` [Control 6, Benzene sulfonamide, reference compound], the dissociation constant (Kd) (carbonic anhydrase, summary statement) was 120 µM. Moreover, under setting [1], the Binding constant result is given as “(9.0 ± 0.1) × 10^3” and the Enthalpy was -31.2 ± 1.6 kcal/mol. For the same compound, the “affinity for the enzyme (in words)” value (titration with the enzyme) is given as “weak affinity”.

For the origin of these results see patent US20060009918A1, “Methods and materials for enhancing the effects of protein modulators” (priority 2004, published 2006).
